Laboratory results published in patent US20230248741A1, “Compositions and Methods for Lowering Triglycerides in a Subject with Reduced Kidney Function and Diabetes Mellitus” (Amarin Pharmaceuticals Ireland Limited, priority 2018, published 2023).

Legend:
Type in all cases: in vivo, human
[1] = test system: patients with eGFR <90 mL/min/1.73 m^2 for ≥3 months and hsCRP ≥2.0 mg/L; test: ANCHOR post-hoc: lipid parameters; settings: 4 g/day; 12 weeks; P<0.0001
Procedure: CVD-related (e.g., atherogenic) parameters were analyzed in a post-hoc study of 152 patients from the multi-center, placebo-controlled, randomized double-blind, 12-week study described in Example 1. These 152 patients have reduced kidney reduced function (e.g., eGFR<90 mL/min/1.73 m^2 for ≥3 months) and hsCRP≥2.0 mg/L.
Subjects: 72 patients were randomized to E-EPA and 80 patients were randomized to placebo. In total, atherogenic parameters were analyzed in all 152 patients, 54% of which were male and 99% of which were white. The mean age of the 152 patients was 64 years old.
The primary objective of this post-hoc study, was to determine if and how 4 g of daily of >96% E-EPA, compared to placebo, affects patients with reduced kidney function, elevated hsCRP (e.g, hsCRP≥2.0 mg/L), and high triglyceride levels. […] CVD-parameters were analyzed for median difference in percent change from baseline to week 12 in subjects receiving 4 g/day of E-EPA and those receiving the placebo.
Analysis: The median difference in lipid/lipoprotein, apolipoprotein, and inflammatory parameters were determined from baseline to week 12 for 4/g day of E-EPA compared to placebo.

[2] = test system: patients with fasting TG ≥200 and <500 mg/dl despite statin therapy; test: ANCHOR study, entire population: fasting TG; settings: 4 g/day
Procedure: A multi-center, placebo-controlled, randomized, double-blind, 12-week study is performed to evaluate the efficacy and safety of >96% E-EPA in patients with fasting triglyceride levels ≥200 mg/dl and <500 mg/dl despite statin therapy (the mean of two qualifying entry values needs to be ≥185 mg/dl and at least one of the values needs to be ≥200 mg/dl). The primary objective of the study is to determine the efficacy of >96% E-EPA 2 g daily and 4 g daily, compared to placebo, in lowering fasting TG levels in patients with high risk for cardiovascular disease and with fasting TG levels ≥200 mg/dL and <500 mg/dL, despite treatment to LDL-C goal on statin therapy.
The primary efficacy variable for the double-blind treatment period is percent change in TG from baseline to Week 12 endpoint. […]

[3] = test system: subjects with Age-Associated Memory Impairment; test: Safety and tolerability (TEAEs), 6-week AAMI study
Procedure: All randomized subjects that received at least 1 dose of study medication were included in the Safety Population.
Safety evaluations were based on the safety population. Safety and tolerability were assessed in terms of AEs, vital signs, 12-lead ECG, clinical laboratory data, medical history, and study drug compliance. Safety and tolerability data were presented by treatment group.

[4] = test system: patients with chronic kidney disease (eGFR <60 mL/min/1.73 m^2 for ≥3 months); test: ANCHOR post-hoc (CKD): renal parameters and TEAEs
Procedure: CVD-related (e.g., atherogenic) parameters were analyzed in a post-hoc study of 55 patients from the multi-center, placebo-controlled, randomized double-blind, 12-week study described in Example 1. These 55 patients have chronic kidney disease (e.g., eGFR<60 mL/min/1.73 m^2 for ≥3 months). There was no lower limit of eGFR specified. Analysis: The median difference in percent change from baseline between 4 g/day of E-EPA and placebo for the primary efficacy variable and additional assessments were estimated using the Hodges-Lehmann method (P values from the Wilcoxon rank-sum test for treatment comparisons). Using the Hodges-Lehmann method, departures from normal distribution were observed; for normally distributed parameters, an analysis of covariance model was used with least squares (LS) means and standard errors (SE). Missing values were imputed using the last-observation-carried-forward method. For all post hoc analyses, the alpha for statistical significance was 0.05.

[5] = 4 g/day group, before treatment

For `CC/C=C\C/C=C\C/C=C\C/C=C\C/C=C\CCCC(=O)OCC` [E-EPA, ethyl eicosapentaenoate], the “reduction of triglycerides compared to placebo” value [1] was “about 16.9%”, the “median TGs reduction from baseline” value [2] was −21.5% and the “subjects with nausea Possibly Related to the study drug” value (“subjects with nausea Possibly Related” for short) ([3]; 1 g E-EPA cohort) was “two”. The “TEAE Probably Related to the study drug” value ([3]; 1 g E-EPA, one subject) was “nausea”, the “subjects with nausea Possibly Related” value ([3]; 2 g E-EPA cohort) was “one” and the “Serious Adverse Event (worsening epigastric chest pain), relation to study drug” value ([3]; 2 g E-EPA, one subject) was “unrelated to the study drug”. The “subjects with nausea Possibly Related” value ([3]; 4 g E-EPA cohort) was “two”, the “TEAE Probably Related to the study drug” value ([3]; 4 g E-EPA, one subject) was “diarrhea” and the SAE reported ([3]; E-EPA 2 g treatment group) was “One”. For the same compound, the “subjects discontinued due to TEAEs” value ([3]; E-EPA 2 g treatment group) was 2 subjects, the TEAEs reported ([3]; E-EPA treatment groups (1, 2, 4 g), placebo groups 34 events) was 105 events and the “TEAEs Definitely Related to the study drug” value ([3]; all groups) was “No TEAEs were Definitely Related to the study drug”. For the same compound, the “deaths during the study” value ([3]; all groups) was “no deaths”, the “BUN at week 12, median (IQR)” value ([4]; 4 g/day) was 22.5 (11.0) mg/dL and the “Nausea, nasopharyngitis, and arthralgia” value ([4]; 4 g/day) was “not reported by any patients”. The “eGFR at week 12, median (IQR)” value ([4]; 4 g/day) was 56.0 (12.9) mL/min/1.73 m^2, the “serum creatinine at week 12, median (IQR)” value ([4]; 4 g/day) was 1.2 (0.4) mg/dL and the “serum creatinine, BUN, or eGFR from baseline to week 12 compared to placebo” value ([4]; 4 g/day) was “did not produce significant changes”. The “BUN at baseline, median (IQR)” value [4, 5] was 24.5 (12.0) mg/dL, the “eGFR at baseline, median (IQR)” value [4, 5] was 55.0 (13.8) mL/min/1.73 m^2 and the “serum creatinine at baseline, median (IQR)” value [4, 5] was 1.2 (0.3) mg/dL. The patients with diarrhea ([4]; 4 g/day, 2 patients) was 10.5%, the “patients with TEAE” value ([4]; 4 g/day, 11 of 19 patients) was 57.9% and the serum albumin ([4]; 4 g/day, 12 weeks) was “no significant median changes from baseline”. For the same compound, the “eGFR, median difference in change from baseline compared with placebo” value ([4]; 4 g/day, P=0.1983) was −7.8%, the “serum creatinine, median difference in change from baseline compared with placebo” value ([4]; 4 g/day, P=0.1983) was 6.5% and the “BUN, median difference in change from baseline compared with placebo” value ([4]; 4 g/day, P=0.5291) was 5.5%. For the same compound, the “BUN, median difference in change from baseline compared with placebo” value ([4]; 4 g/day, P=0.5471) was 1.0 mg/dL.
